Laboratory results from patent US7700593B2, “Imidazo- and triazolo-pyridine compounds and methods of use thereof” (Amgen Inc., priority 2006, dated 2010).
Read-outs that look alike come from different tables or passages of the source.

Experiments:
p38α = p38α (Homo sapiens, UniProt Q16539); experiment: p38 in-vitro HTRF enzyme assay; assay type: biochemical; conditions: IC50 value ranges
Procedure: p38 In-Vitro HTRF Enzyme Assay
The compounds of the invention can be tested for their respective affinities for the p38 protein using a conventional p38 in-vitro enzyme activity assay. For example, a P38-alpha HTRF assay may be used to measure the protein's in-vitro phosphorylation activity, and the data analyzed using time resolved fluorimetry techniques (FRET). A p38 HTRF assay is as follows. The kinase reaction buffer for p38α, p38β, p38δ and p38γ HTRF assays consists of 50 mM Tris-pH 7.5, 5 mM MgCl2, 0.1 mg/mL BSA, 100 μM Na3VO4 and 0.5 mM DTT. The HTRF detection buffer contains 100 mM HEPES-pH 7.5, 100 mM NaCl, 0.1% BSA, 0.05% Tween-20, and 10 mM EDTA. Each compound was dissolved in 100% DMSO and serially diluted (3 fold, 10 point) in a polypropylene 96-well microtiter plate (drug plate). The final starting concentration of the compound in the p38α and p38β enzymatic assays was about 1 μM. The final starting concentration of each compound in the p38δ and p38γ enzymatic assays was about 10 μM. The p38α, p38β, p38δ and p38γ kinase reactions were carried out in a polypropylene 96-well black round bottom assay plate in total volume of 30 μL kinase reaction buffer. Appropriate concentration of purified and activated enzyme (recombinant human) was mixed with indicated concentration of ATP and 100 nM GST-ATF2-Avitag, in the presence or absence (HI control) of each compound. In the absence of enzyme, the background was measured as LO control. HI controls and LO controls contained only DMSO. The reaction was allowed to incubate for 1 hour at RT. […] After 60 minutes incubation at room temperature, the assay plate was read in a Discovery Plate Reader. The wells were excited with coherent 320 nm light and the ratio of delayed ([…] post excitation) emissions at […] (native europium fluorescence) and 665 nm (europium fluorescence transferred to allophycocyanin—an index of substrate phosphorylation) was determined (Park et al, 1999). The resulting data was analyzed by taking the proportion of substrate phosphorylated in the kinase reaction in the presence of each individual compound and comparing it with that phosphorylated in the presence of DMSO vehicle alone (HI control). The data was calculated using the formula: % control (POC)=(compound−average LO)/(average HI−average LO)*100. Data (consisting of POC and inhibitor concentration in μM) was fitted to a 4-parameter equation (y=A+((B−A)/(1+((x/C)^D))), where A is the minimum y (POC) value, B is the maximum y (POC), C is the x (compound concentration) at the point of inflection and D is the slope factor, using a Levenburg-Marquardt non-linear regression algorithm. The inhibition constant (Ki) of the inhibitor was estimated from the IC50 (compound concentration at the point of inflection C) using the Cheng-Prussof equation: Ki=IC50/(1+S/Km), where S is the ATP substrate concentration, and Km is the Michaelis constant for ATP as determined experimentally. All results were expressed as the mean±the standard error of the mean. Data acquisition and non-linear regression algorithms were performed using Activity Base v5.2 and XLfit software v4.1 respectively. Additional assay information may be obtained in Park Y W, Cummings R T, Wu L, et al. Homogeneous Proximity Tyrosine Kinase Assays Scintillation Proximity Assay versus Homogeneous Time-Resolved Fluorescence. Analytical Biochemistry. 1999; 269: 94-104.

THP1 cells = experiment: Lipopolysaccharide-activated THP1 cell TNF production assay; assay type: cell-based, human; conditions: LPS-induced TNF-α production in THP1 cells
Procedure: Lipopolysaccharide-Activated THP1 Cell TNF Production Assay
THP1 cells are resuspended in fresh THP1 media (RPMI 1640, 10% heat-inactivated FBS, 1×PGS, 1×NEAA, plus 30 μM βME) at a concentration of 1E6/mL. One hundred microliters of cells per well are plated in a polystyrene 96-well tissue culture. One microgram per mL of bacterial LPS is prepared in THP1 media and is transferred to the wells. Test compounds are dissolved in 100% DMSO and are serially diluted 3-fold in a polypropylene 96-well microtiter plate (drug plate). HI control and LO control wells contain only DMSO. One microliter of test compound from the drug plate followed by 10 μL of LPS are transferred to the cell plate. The treated cells are induced to synthesize and secrete TNF-α at 37° C. for 3 h. Forty microliters of conditioned media are transferred to a 96-well polypropylene plate containing 110 μL of ECL buffer (50 mM Tris-HCl pH 8.0, 100 mM NaCl, 0.05% Tween 20, 0.05% NaN3 and 1% FBS) supplemented with 0.44 nM MAB610 monoclonal Ab (R&D Systems), 0.34 nM ruthenylated AF210NA polyclonal Ab (R&D Systems) and 44 μg/mL sheep anti-mouse M280 Dynabeads (Dynal). After a 2 h incubation at room temperature with shaking, the reaction is read on the ECL M8 Instrument (IGEN Inc.). A low voltage is applied to the ruthenylated TNF-α immune complexes, which in the presence of TPA (the active component in Origlo), results in a cyclical redox reaction generating light at […]. The amount of secreted TNF-α in the presence of compound compared with that in the presence of DMSO vehicle alone (HI control) is calculated using the formula: % control (POC)=(cpd−average LO)/(average HI−average LO)*100. Data (consisting of POC and inhibitor concentration in μM) is fitted to a 4-parameter equation (y=A+((B−A)/(1+((x/C)^D))), where A is the minimum y (POC) value, B is the maximum y (POC), C is the x (cpd concentration) at the point of inflection and D is the slope factor) using a Levenburg-Marquardt non-linear regression algorithm.

monocytes = experiment: Lipopolysaccharide-activated monocyte TNF production assay (LPS induced TNF release); assay type: cell-based, human; conditions: LPS induced TNF release from monocytes, read-out: LPS induced TNFa
Procedure: Lipopolysaccharide-Activated Monocyte TNF Production Assay
Test compounds were evaluated in vitro for the ability to inhibit the production of TNF by monocytes activated with bacterial lipopolysaccharide (LPS). Fresh residual source leukocytes (a byproduct of plateletpheresis) were obtained from a local blood bank, and peripheral blood mononuclear cells (PBMCs) were isolated by density gradient centrifugation on Ficol-Paque Plus (Pharmacia). PBMCs were suspended at 2×10^6/mL in DMEM supplemented to contain 2% FCS, 10 mM, 0.3 mg/mL […], 100 U/mL penicillin G and […] streptomycin sulfate (complete media). Cells were plated into Falcon flat bottom, 96 well culture plates (200 μL/well) and cultured overnight at 37° C. and 6% CO2. Non-adherent cells were removed by washing with 200 μl/well of fresh medium. Wells containing adherent cells (˜70% monocytes) were replenished with 100 μL of fresh medium.
Preparation of Test Compound Stock Solutions
Test compounds were dissolved in […]. Compound stock solutions were prepared to an initial concentration of […]. Stocks were diluted initially to […] in complete media. Nine two-fold serial dilutions of each compound were then prepared in complete medium.
Treatment of Cells with Test Compounds and Activation of TNF Production with Lipopolysaccharide
One hundred microliters of each test compound dilution were added to microtiter wells containing adherent monocytes and 100 μL complete medium. Monocytes were cultured with test compounds for 60 min at which time 25 μL of complete medium containing 30 ng/mL lipopolysaccharide from E. coli K532 were added to each well. Cells were cultured an additional 4 hrs. Culture supernatants were then removed and TNF presence in the supernatants was quantified using an ELISA.
Flat bottom, 96 well Corning High Binding ELISA plates were coated overnight (4° C.) with 150 μL/well of 3 μg/mL murine anti-human TNF-α MAb (R&D Systems #MAB210). Wells were then blocked for 1 h at room temperature with 200 μL/well of CaCl2-free ELISA buffer supplemented to contain 20 mg/mL BSA (standard ELISA buffer: […], 150 mM NaCl, 2 mM CaCl2, 0.15 mM thimerosal, pH 7.4). Plates were washed and replenished with 100 μL of test supernatants (diluted 1:3) or standards. Standards consisted of eleven 1.5-fold serial dilutions from a stock of 1 ng/mL recombinant human TNF (R&D Systems). Plates were incubated at room temperature for 1 h on orbital shaker (300 rpm), washed and replenished with 100 μL/well of 0.5 μg/mL goat anti-human TNF-α (R&D systems #AB-210-NA) biotinylated at a 4:1 ratio. Plates were incubated for 40 min, washed and replenished with 100 μL/well of alkaline phosphatase-conjugated streptavidin (Jackson ImmunoResearch #016-050-084) at 0.02 μg/mL. Plates were incubated 30 min, washed and replenished with 200 μL/well of 1 mg/mL of p-nitrophenyl phosphate.
Standard curve data were fit to a second order polynomial and unknown TNF-α concentrations determined from their OD by solving this equation for concentration. TNF concentrations were then plotted vs. test compound concentration using a second order polynomial. This equation was then used to calculate the concentration of test compounds causing a 50% reduction in TNF production.

Sequence of p38α (Q16539 whole entry): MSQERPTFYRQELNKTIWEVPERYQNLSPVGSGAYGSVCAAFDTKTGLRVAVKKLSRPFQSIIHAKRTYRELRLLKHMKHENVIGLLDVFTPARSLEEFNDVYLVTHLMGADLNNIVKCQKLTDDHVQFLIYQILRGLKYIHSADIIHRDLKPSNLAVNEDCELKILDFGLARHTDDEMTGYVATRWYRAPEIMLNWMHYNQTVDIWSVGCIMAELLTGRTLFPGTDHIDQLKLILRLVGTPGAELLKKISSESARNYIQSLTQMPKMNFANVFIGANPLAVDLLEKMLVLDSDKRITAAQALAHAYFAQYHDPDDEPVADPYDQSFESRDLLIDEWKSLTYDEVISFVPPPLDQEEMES

| Molecule | IC50 (p38α) [µM] | IC50 (THP1 cells; read-out: THP-1 cell assay) [µM] | IC50 (monocytes) [µM] | IC50 (THP1 cells; Homo sapiens, THP-1) [µM] | IC50 (monocytes; Homo sapiens, Monocyte) [µM] |
| --- | --- | --- | --- | --- | --- |
| 4-methyl-3-(3-(4-methyl-1,3-oxazol-5-yl)[1,2,4]triazolo[4,3-a]pyridin-7-yl)-N-(1-methyl-1H-pyrazol-5-yl)benzamide [Example 58] | 0.025 to 0.1 | 0.25 to 1 | 0.25 to 1 | – | – |
| Cc1ccc(C(=O)NC2CC2)cc1-c1ccn2c(N)nnc2c1 [Example 1, 3-(3-amino[1,2,4]triazolo[4,3-a]pyridin-7-yl)-N-cyclopropyl-4-methylbenzamide] | 0.25 to 1 | – | – | 1 to 5 | 1 to 5 |
| Cc1ccc(C(=O)NC2CC2)cc1-c1ccn2c(-c3ccccc3F)nnc2c1 [Example 2, N-cyclopropyl-3-(3-(2-fluorophenyl)[1,2,4]triazolo[4,3-a]pyridin-7-yl)-4-methylbenzamide] | < 0.025 | – | – | 0.025 to 0.1 | 0.025 to 0.1 |
| Cc1ccc(C(=O)Nc2ccnn2C)cc1-c1ccn2c(-c3ccccc3Cl)nnc2c1 [Example 3, 3-(3-(2-chlorophenyl)[1,2,4]triazolo[4,3-a]pyridin-7-yl)-4-methyl-N-(1-methyl-1H-pyrazol-5-yl)benzamide] | < 0.025 | – | – | < 0.025 | < 0.025 |
| Cc1ccc(C(=O)Nc2ccnn2C)cc1-c1ccn2c(-c3cnccc3C(F)(F)F)ncc2c1 [Example 4, 4-methyl-N-(1-methyl-1H-pyrazol-5-yl)-3-(3-(4-(trifluoromethyl)-3-pyridinyl)imidazo[1,5-a]pyridin-7-yl)benzamide] | < 0.025 | – | – | 0.025 to 0.1 | 0.025 to 0.1 |
| Cc1ccc(C(=O)NC2CC2)cc1-c1cc(C)n2c(-c3ccccc3Cl)nnc2c1 [Example 6, 3-(3-(2-chlorophenyl)-5-methyl[1,2,4]triazolo[4,3-a]pyridin-7-yl)-N-cyclopropyl-4-methylbenzamide] | < 0.025 | – | – | < 0.025 | 0.025 to 0.1 |
| Cc1ccc(C(=O)NC2CC2)cc1-c1ccn2c(NC(C)C)nnc2c1 [Example 7, N-cyclopropyl-4-methyl-3-(3-((1-methylethyl)amino)[1,2,4]triazolo[4,3-a]pyridin-7-yl)benzamide] | < 0.025 | – | – | 0.1 to 0.25 | 0.1 to 0.25 |
| Cc1ccc(C(=O)Nc2ccnn2C)cc1-c1ccn2c(-c3cc(F)cc(F)c3)ncc2c1 [Example 8, 3-(3-(3,5-difluorophenyl)imidazo[1,5-a]pyridin-7-yl)-4-methyl-N-(1-methyl-1H-pyrazol-5-yl)benzamide] | < 0.025 | – | – | 0.1 to 0.25 | 1 to 5 |
| Cc1ccc(C(=O)Nc2ccnn2C)cc1-c1ccn2c(-c3ccccc3Cl)ncc2c1 [Example 9, 3-(3-(2-chlorophenyl)imidazo[1,5-a]pyridin-7-yl)-4-methyl-N-(1-methyl-1H-pyrazol-5-yl)benzamide] | < 0.025 | – | – | < 0.025 | 0.025 to 0.1 |
| Cc1ccc(C(=O)NC2CC2)cc1-c1ccn2c(-c3ccccc3Cl)nnc2c1 [Example 10, 3-(3-(2-chlorophenyl)[1,2,4]triazolo[4,3-a]pyridin-7-yl)-N-cyclopropyl-4-methylbenzamide] | < 0.025 | – | – | < 0.025 | 0.025 to 0.1 |
| Cc1ccc(C(=O)NC2CC2)cc1-c1ccn2c(C3(C(F)(F)F)CC3)nnc2c1 [Example 21, N-cyclopropyl-4-methyl-3-(3-(1-(trifluoromethyl)cyclopropyl)[1,2,4]triazolo[4,3-a]pyridin-7-yl)benzamide] | < 0.025 | – | – | < 0.025 | – |
| Cc1ccc(C(=O)NC2CC2)cc1-c1ccn2c(-c3ccc(S(C)(=O)=O)cc3Cl)nnc2c1 [Example 26, 3-(3-(2-chloro-4-(methylsulfonyl)phenyl)[1,2,4]triazolo[4,3-a]pyridin-7-yl)-N-cyclopropyl-4-methylbenzamide] | < 0.025 | – | – | 0.1 to 0.25 | – |
| Cc1ccc(C(=O)NC2CC2)cc1-c1ccn2c(C(C)C)nnc2c1 [Example 27, N-cyclopropyl-4-methyl-3-(3-(1-methylethyl)[1,2,4]triazolo[4,3-a]pyridin-7-yl)benzamide] | < 0.025 | – | – | 0.025 to 0.1 | – |
